These results are taken from US20080234262A1 (Wyeth, priority 2007, published 2008).

For orientation: IC50 means the concentration that gives 50% inhibition.

The first assay has as its system breast line MDA468. Briefly: In vitro cell culture growth assay (MTS), MDA468. The class given is cell-based, human. To be noted: Homo sapiens, 72 h, MDA468 cells, three days after drug treatment. The method, then: Human tumor cell lines used include prostate lines LNCap and PC3MM2, breast lines MDA468, MCF7, renal line HTB44 (A498), colon line HCT116, and ovarian line OVCAR3. Cells were plated in 96-well culture plates. One day following plating, the inhibitors were added to cells. Three days after drug treatment, viable cell densities were determined by metabolic conversion (by viable cells) of the dye MTS, a well established cell proliferation assay. The assays were performed using an assay kit purchased from Promega Corp. (Madison, Wis.) following the protocol supplied with the kit. The MTS assay results were read in a 96-well plate reader by measuring absorbance at 490 nm. The effect of each treatment was calculated as percent of control growth relative to the vehicle-treated cells grown in the same culture plate.
`CN(C)NC(=O)Nc1ccc(-c2nc(N3CCOCC3)c3cnn(C4CCN(Cc5ccccc5)CC4)c3n2)cc1` [Compound 290, N-{4-[1-(1-benzylpiperidin-4-yl)-4-morpholin-4-yl-1H-pyrazolo[3,4-d]pyrimidin-6-yl]phenyl}-2,2-dimethylhydrazinecarboxamide]: half-maximal inhibition (IC50) required 8000 nM.
`COC(=O)N1CCC(n2ncc3c(N4CCOCC4)nc(-c4ccc(NC(=O)Nc5ccc(CCN6CCCC6)cc5)cc4)nc32)CC1` [Compound 914, methyl 4-{4-morpholin-4-yl-6-[4-({[4-(2-pyrrolidin-1-ylethyl)phenyl]carbamoyl}amino)phenyl]-1H-pyrazolo[3,4-d]pyrimidin-1-yl}piperidine-1-carboxylate] had an IC50 of 20 nM.
The compound `COC(=O)N1CCC(n2ncc3c(N4CCOCC4)nc(-c4ccc(NC(=O)NC5CC5)cc4)nc32)CC1` [Compound 734, methyl 4-(6-{4-[(cyclopropylcarbamoyl)amino]phenyl}-4-morpholin-4-yl-1H-pyrazolo[3,4-d]pyrimidin-1-yl)piperidine-1-carboxylate] yielded a half-inhibitory concentration (IC50) of 150 nM.
`CNC(=O)Nc1ccc(-c2nc(N3CCOCC3)c3cnn(C4CCN(C(=O)OC(C)(C)C)CC4)c3n2)cc1` [Example 337, tert-butyl 4-(6-{4-[(methylcarbamoyl)amino]phenyl}-4-morpholin-4-yl-1H-pyrazolo[3,4-d]pyrimidin-1-yl)piperidine-1-carboxylate] had a half-inhibitory concentration (IC50) of 300 nM.
Regarding `CN(C)CCNC(=O)Nc1ccc(-c2nc(N3CCOCC3)c3cnn(C4CCN(Cc5ccccc5)CC4)c3n2)cc1` [Compound 513, 1-{4-[1-(1-benzylpiperidin-4-yl)-4-morpholin-4-yl-1H-pyrazolo[3,4-d]pyrimidin-6-yl]phenyl}-3-[2-(dimethylamino)ethyl]urea], half-maximal inhibition (IC50) was put at 600 nM.
Still for that read-out and setting: the same measure for `CN(C)NC(=O)Nc1ccc(-c2nc(N3CCOCC3)c3cnn(C4CCN(Cc5ccccc5)CC4)c3n2)cc1` [Compound 536, N-{4-[1-(1-benzylpiperidin-4-yl)-4-morpholin-4-yl-1H-pyrazolo[3,4-d]pyrimidin-6-yl]phenyl}-2,2-dimethylhydrazinecarboxamide]: 8000 nM; for `CNC(=O)Cc1ccc(-c2nc(N3CCOCC3)c3cnn(C4CCN(Cc5ccccc5)CC4)c3n2)cc1` [Compound 616, 2-{4-[1-(1-benzylpiperidin-4-yl)-4-morpholin-4-yl-1H-pyrazolo[3,4-d]pyrimidin-6-yl]phenyl}-N-methylacetamide]: 10000 nM; for `CCNC(=O)Nc1ccc(-c2nc(N3CCOCC3)c3cnn(C4CCN(Cc5ccccc5)CC4)c3n2)cc1` [Compound 499, 1-{4-[1-(1-benzylpiperidin-4-yl)-4-morpholin-4-yl-1H-pyrazolo[3,4-d]pyrimidin-6-yl]phenyl}-3-ethylurea]: 350 nM.
Same read-out and setting: the same measure for `COC(=O)N1CCC(n2ncc3c(N4CCOCC4)nc(-c4ccc(NC(=O)Nc5ccccc5)cc4)nc32)CC1` [Compound 735, methyl 4-(6-{4-[(anilinocarbonyl)amino]phenyl}-4-morpholin-4-yl-1H-pyrazolo[3,4-d]pyrimidin-1-yl)piperidine-1-carboxylate]: 80 nM.

Staying with this assay, now noted: MDA468 cells, three days after drug treatment.
`CNC(=O)Nc1ccc(-c2nc(N3CCOCC3)c3cnn(C4CCN(C(=O)OC)CC4)c3n2)cc1` [Compound 720, methyl 4-(6-{4-[(methylcarbamoyl)amino]phenyl}-4-morpholin-4-yl-1H-pyrazolo[3,4-d]pyrimidin-1-yl)piperidine-1-carboxylate] had an IC50 of 95 nM.
Compound `CNC(=O)Nc1ccc(-c2nc(N3CCOCC3)c3cnn(C4CCN(C(=O)OC(C)(C)C)CC4)c3n2)cc1` [Compound 583, tert-butyl 4-(6-{4-[(methylcarbamoyl)amino]phenyl}-4-morpholin-4-yl-1H-pyrazolo[3,4-d]pyrimidin-1-yl)piperidine-1-carboxylate] gave an IC50 of 450 nM.
